From ChEMBL document CHEMBL5543162, “Discovery of a Novel Orally Bioavailable FLT3-PROTAC Degrader for Efficient Treatment of Acute Myeloid Leukemia and Overcoming Resistance of FLT3 Inhibitors” (J Med Chem, 2024)
Active and inactive are the calls of the source. The calls are words filed in the database; no cut-off is given here.

Columns and labels:
[1] = Stability in rat liver microsomes assessed as hepatic clearance; format: ADME, Microsome
[2] = Toxicity in nu/nu mouse xenografted with human MV4-11 cells assessed as damage in lung at 1.25 to 10 mg/kg, po administered daily for 2 weeks by H and E staining based analysis; format: organism-based; details: in vivo, 336 h, dose 1.25-10 mg/kg
MV4-11 [3] = test: Antiproliferative activity against human MV4-11 cells expressing FLT3-ITD mutant incubated for 48 hrs by CCK8 assay; format: functional, cell-based; details: MV4-11, 48 h
[4] = Toxicity in nu/nu mouse xenografted with human MV4-11 cells assessed as damage in spleen at 1.25 to 10 mg/kg, po administered daily for 2 weeks by H and E staining based analysis; format: organism-based; details: in vivo, 336 h, dose 1.25-10 mg/kg
[5] = Stability in dog liver microsomes assessed as half life; format: ADME, Canis lupus familiaris, Microsome
[6] = AUC (0 to t) in Sprague-Dawley rat at 10 mg/kg, po measured for 24 hrs by LC-MS/MS analysis; format: ADME, organism-based; details: in vivo
[7] = tested on: Protein cereblon/Receptor-type tyrosine-protein kinase FLT3 (Homo sapiens), P36888+Q96SW2 [UNDEFINED MUTATION]; test: PROTAC activity at CRBN/FLT3-ITD mutant in human MV4-11 cells assessed as decrease in ERK level incubated for 12 hrs by Western blot analysis; format: cell-based; details: dose <= 20.0 nM
Sequence of Protein cereblon/Receptor-type tyrosine-protein kinase FLT3 (Homo sapiens), P36888+Q96SW2 [UNDEFINED MUTATION] (P36888 whole entry, looked up, stated change not applied): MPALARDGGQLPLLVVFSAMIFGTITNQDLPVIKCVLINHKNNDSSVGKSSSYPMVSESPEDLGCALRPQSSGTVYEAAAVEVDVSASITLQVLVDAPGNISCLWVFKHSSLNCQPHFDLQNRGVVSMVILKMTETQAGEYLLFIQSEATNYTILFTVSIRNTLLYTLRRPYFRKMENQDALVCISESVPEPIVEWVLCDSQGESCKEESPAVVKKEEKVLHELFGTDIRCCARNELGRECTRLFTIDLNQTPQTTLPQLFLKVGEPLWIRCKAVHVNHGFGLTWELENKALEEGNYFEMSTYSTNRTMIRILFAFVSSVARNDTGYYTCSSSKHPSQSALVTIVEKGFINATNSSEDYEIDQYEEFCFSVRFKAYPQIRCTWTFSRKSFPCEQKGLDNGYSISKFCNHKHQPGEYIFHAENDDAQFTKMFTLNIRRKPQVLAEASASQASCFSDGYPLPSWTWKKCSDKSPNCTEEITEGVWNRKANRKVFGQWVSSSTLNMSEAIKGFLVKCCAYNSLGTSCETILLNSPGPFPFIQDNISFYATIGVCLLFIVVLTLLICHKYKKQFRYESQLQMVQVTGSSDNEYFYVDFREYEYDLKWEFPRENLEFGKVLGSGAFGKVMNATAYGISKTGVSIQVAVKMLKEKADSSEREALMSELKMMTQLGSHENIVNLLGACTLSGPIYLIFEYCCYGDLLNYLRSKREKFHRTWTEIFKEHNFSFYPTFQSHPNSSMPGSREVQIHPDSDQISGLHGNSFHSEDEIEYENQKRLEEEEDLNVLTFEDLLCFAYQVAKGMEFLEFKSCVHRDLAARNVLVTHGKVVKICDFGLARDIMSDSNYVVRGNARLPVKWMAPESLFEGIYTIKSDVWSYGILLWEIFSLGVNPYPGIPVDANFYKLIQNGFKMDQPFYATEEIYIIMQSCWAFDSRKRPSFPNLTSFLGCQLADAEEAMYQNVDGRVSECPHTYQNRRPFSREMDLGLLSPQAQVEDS
Sequence of Protein cereblon/Receptor-type tyrosine-protein kinase FLT3 (Homo sapiens), P36888+Q96SW2 [UNDEFINED MUTATION] (Q96SW2 whole entry, looked up, stated change not applied): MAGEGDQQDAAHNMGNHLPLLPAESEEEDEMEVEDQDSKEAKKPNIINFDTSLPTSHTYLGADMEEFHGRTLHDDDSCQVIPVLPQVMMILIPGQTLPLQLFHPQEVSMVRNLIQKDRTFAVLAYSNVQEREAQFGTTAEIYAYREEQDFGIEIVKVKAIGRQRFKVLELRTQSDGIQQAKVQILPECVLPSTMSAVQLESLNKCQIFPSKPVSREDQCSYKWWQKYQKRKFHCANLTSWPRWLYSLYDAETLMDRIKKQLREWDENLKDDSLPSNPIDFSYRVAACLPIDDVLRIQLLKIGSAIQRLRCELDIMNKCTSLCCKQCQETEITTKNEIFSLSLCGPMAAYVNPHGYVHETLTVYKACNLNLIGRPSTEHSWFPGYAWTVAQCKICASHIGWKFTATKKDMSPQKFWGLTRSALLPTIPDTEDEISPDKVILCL

[8] = Toxicity in nu/nu mouse xenografted with human MV4-11 cells assessed as damage in kidney at 1.25 to 10 mg/kg, po administered daily for 2 weeks by H and E staining based analysis; format: organism-based; details: in vivo, 336 h, dose 1.25-10 mg/kg
MV4-11 [9] = test: Antitumor activity against human MV4-11 cells expressing luciferase xenografted in NSG mouse assessed as decrease in leukemic burden at 2.5 to 10 mg/kg, po administered daily for 3 weeks by bioluminescence imaging; format: functional, organism-based; details: dose 2.5-10 mg/kg
[10] = tested on: Protein cereblon/Receptor-type tyrosine-protein kinase FLT3 (Homo sapiens), P36888+Q96SW2 [UNDEFINED MUTATION]; test: PROTAC activity at CRBN/FLT3-ITD mutant in human MV4-11 cells assessed as decrease in STAT5 level incubated for 12 hrs by Western blot analysis; format: cell-based; details: dose <= 20.0 nM
CYP3A4/CYP3A5 [11] = target: T1, CYP3A4/CYP3A5 (Homo sapiens, UniProt P08684+P20815); test: Inhibition of CYP3A4/CYP3A5 (unknown origin) using testosterone as substrate; format: ADME, protein assay; details: probe testosterone
Mus musculus = test: Anti-leukemic activity in NSG mouse xenografted with human MV4-11 cells expressing luciferase assessed as decrease in CD45+/CD33+ cells proportion in spleen at 1.25 to 10 mg/kg, po administered daily for 3 weeks; format: functional, organism-based; details: dose 1.25-10 mg/kg
MOLM-13 [12] = test: Antiproliferative activity against Quizartinib-resistant human MOLM-13 cells incubated for 48 hrs by CCK8 assay; format: functional, cell-based; details: MOLM-13, 48 h
[13] = Volume of distribution at steady state in Sprague-Dawley rat at 1 mg/kg, iv measured for 24 hrs by LC-MS/MS analysis; format: ADME, organism-based; details: in vivo, read-out: Vdss
[14] = Stability in mouse liver microsomes assessed as half life; format: ADME, Microsome
[15] = Antiproliferative activity against mouse Ba/F3 FLT3-ITD cells incubated for 48 hrs by CCK8 assay; format: functional, cell-based
[16] = Half life in Sprague-Dawley rat at 10 mg/kg, po measured for 24 hrs by LC-MS/MS analysis; format: ADME, organism-based; details: in vivo
[17] = Tmax in Sprague-Dawley rat at 10 mg/kg, po measured for 24 hrs by LC-MS/MS analysis; format: ADME, organism-based; details: in vivo
MOLM-13 [18] = test: Antiproliferative activity against Sunitinib-resistant human MOLM-13 cells incubated for 48 hrs by CCK8 assay; format: functional, cell-based; details: MOLM-13, 48 h
[19] = tested on: Protein cereblon/Receptor-type tyrosine-protein kinase FLT3 (Homo sapiens), P36888+Q96SW2 [UNDEFINED MUTATION]; test: PROTAC activity at CRBN/FLT3-ITD mutant in human MOLM-13 cells assessed as decrease in STAT5 level at 20 nM by Western blot analysis; format: cell-based; details: time <= 12.0 hrs, TDE = time-dependent effect
[20] = Antiproliferative activity against human THP-1 cells expressing wild-type FLT3 incubated for 48 hrs by CCK8 assay; format: toxicity, cell-based
Cytochrome P450 2C8 = target: T2, Cytochrome P450 2C8 (Homo sapiens, UniProt P10632); test: Inhibition of CYP2C8 (unknown origin); format: ADME
T2 sequence (P10632 whole entry): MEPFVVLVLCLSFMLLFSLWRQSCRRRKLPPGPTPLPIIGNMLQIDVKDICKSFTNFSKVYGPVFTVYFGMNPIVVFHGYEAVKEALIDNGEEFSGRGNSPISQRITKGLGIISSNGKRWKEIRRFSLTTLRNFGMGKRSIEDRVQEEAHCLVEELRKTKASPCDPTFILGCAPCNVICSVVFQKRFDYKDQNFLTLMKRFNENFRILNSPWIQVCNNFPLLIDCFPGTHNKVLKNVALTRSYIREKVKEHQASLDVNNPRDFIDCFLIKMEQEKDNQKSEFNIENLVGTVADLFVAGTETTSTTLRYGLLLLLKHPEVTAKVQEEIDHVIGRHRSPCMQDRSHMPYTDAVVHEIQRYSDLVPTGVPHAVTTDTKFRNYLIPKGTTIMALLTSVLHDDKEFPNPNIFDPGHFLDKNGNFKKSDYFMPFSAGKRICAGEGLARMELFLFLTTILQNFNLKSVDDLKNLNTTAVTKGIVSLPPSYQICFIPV

[21] = Clearance in Sprague-Dawley rat at 1 mg/kg, iv measured for 24 hrs by LC-MS/MS analysis; format: ADME, organism-based; details: in vivo
MV4-11 [22] = test: Antitumor activity against human MV4-11 cells expressing luciferase xenografted in NSG mouse assessed as increase in animal survival at 10 mg/kg, po administered daily for 3 weeks and measured for 77 days; format: functional, organism-based; details: time 77.0 day
MV4-11 [23] = test: Antitumor activity against human MV4-11 cells expressing luciferase xenografted in NSG mouse assessed as increase in animal survival at 5 mg/kg, po administered daily for 3 weeks and measured for 66 days; format: functional, organism-based; details: time 66.0 day
MV4-11 [24] = test: Induction of apoptosis in human MV4-11 cells incubated for 24 hrs by Annexin V-FITC/PI staining based flow cytometry; format: functional, cell-based; details: dose 25-100 nM
[25] = target: Voltage-gated inwardly rectifying potassium channel KCNH2 (Homo sapiens, UniProt Q12809); test: Inhibition of hERG; format: toxicity
Sequence of Voltage-gated inwardly rectifying potassium channel KCNH2 (Q12809 whole entry): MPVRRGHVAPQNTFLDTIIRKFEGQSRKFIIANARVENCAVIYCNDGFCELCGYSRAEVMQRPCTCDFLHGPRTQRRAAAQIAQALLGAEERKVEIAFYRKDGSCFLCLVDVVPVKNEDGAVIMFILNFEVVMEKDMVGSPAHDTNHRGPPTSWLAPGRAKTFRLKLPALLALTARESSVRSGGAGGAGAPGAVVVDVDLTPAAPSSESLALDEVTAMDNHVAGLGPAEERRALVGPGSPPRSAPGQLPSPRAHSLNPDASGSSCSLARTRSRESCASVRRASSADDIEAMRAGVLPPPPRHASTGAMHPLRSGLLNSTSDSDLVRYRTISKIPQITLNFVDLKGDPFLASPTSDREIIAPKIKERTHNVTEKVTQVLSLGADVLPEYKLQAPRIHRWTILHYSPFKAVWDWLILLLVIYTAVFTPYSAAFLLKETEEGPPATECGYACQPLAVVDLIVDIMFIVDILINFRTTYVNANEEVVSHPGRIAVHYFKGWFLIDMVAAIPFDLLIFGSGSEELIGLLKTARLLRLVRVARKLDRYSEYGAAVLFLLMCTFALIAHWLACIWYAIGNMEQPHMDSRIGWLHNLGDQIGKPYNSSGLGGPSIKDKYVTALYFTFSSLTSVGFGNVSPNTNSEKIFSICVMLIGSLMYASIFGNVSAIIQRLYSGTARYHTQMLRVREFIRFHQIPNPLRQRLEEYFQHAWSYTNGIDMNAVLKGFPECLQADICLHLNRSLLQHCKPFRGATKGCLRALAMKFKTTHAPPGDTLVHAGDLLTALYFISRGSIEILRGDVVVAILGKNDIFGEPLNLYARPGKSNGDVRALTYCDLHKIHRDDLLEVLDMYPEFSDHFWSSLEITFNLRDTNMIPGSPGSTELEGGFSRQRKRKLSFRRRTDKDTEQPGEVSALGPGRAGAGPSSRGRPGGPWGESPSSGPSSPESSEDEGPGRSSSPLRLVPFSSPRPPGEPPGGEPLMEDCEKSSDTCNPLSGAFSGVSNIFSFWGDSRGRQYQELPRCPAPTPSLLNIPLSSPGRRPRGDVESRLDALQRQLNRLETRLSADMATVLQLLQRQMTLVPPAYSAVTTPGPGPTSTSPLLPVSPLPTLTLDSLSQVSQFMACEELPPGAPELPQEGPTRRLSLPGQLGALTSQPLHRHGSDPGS

[26] = tested on: Protein cereblon/Receptor-type tyrosine-protein kinase FLT3 (Homo sapiens), P36888+Q96SW2 [UNDEFINED MUTATION]; test: PROTAC activity at CRBN/FLT3-ITD mutant in human MV4-11 cells assessed as decrease in S6K level at 20 nM by Western blot analysis; format: cell-based; details: time <= 12.0 hrs, TDE = time-dependent effect
[27] = tested on: Protein cereblon/Receptor-type tyrosine-protein kinase FLT3 (Homo sapiens), P36888+Q96SW2 [UNDEFINED MUTATION]; test: PROTAC activity at CRBN/FLT3-ITD mutant in human MOLM-13 cells assessed as decrease in ERK level incubated for 12 hrs by Western blot analysis; format: cell-based; details: dose <= 20.0 nM
[28] = Stability in monkey liver microsomes assessed as half life; format: ADME, Microsome; details: chlorocebus aethiops
[29] = Clearance in Sprague-Dawley rat at 10 mg/kg, po measured for 24 hrs by LC-MS/MS analysis; format: ADME, organism-based; details: in vivo
CYP3A4/CYP3A5 [30] = target: T1, CYP3A4/CYP3A5; test: Inhibition of CYP3A4/CYP3A5 (unknown origin) using midazolam as substrate; format: ADME, protein assay; details: probe midazolam
[31] = tested on: Protein cereblon/Receptor-type tyrosine-protein kinase FLT3 (Homo sapiens), P36888+Q96SW2 [UNDEFINED MUTATION]; test: PROTAC activity at CRBN/FLT3-ITD mutant in human MOLM-13 cells assessed as protein degradation incubated for 12 hrs by Western blot analysis; format: cell-based; details: dose <= 20.0 nM
[32] = Toxicity in NSG mouse xenografted with human MV4-11 cells expressing luciferase assessed as obvious adverse response at 1.25 to 10 mg/kg, po administered daily for 3 weeks; format: organism-based; details: in vivo, 504 h, dose 1.25-10 mg/kg

Compound: Cc1c(NC(=O)CN2CCN(CC3CCN(c4ccc5c(c4)C(=O)N(C4CCC(=O)NC4=O)C5=O)CC3)CC2)c[nH]c1/C=C1\C(=O)Nc2ccc(F)cc21 (centres undefined)
- CLhep predicted [1]: 20.5 mL/min/kg
- Activity [2]: Non-Toxic
- IC50 (MV4-11 [3]): 39.9 nM
- Activity [4]: Non-Toxic
- half-life [5]: 1.88 h
- AUC(0-t) at 24 h [6]: 14700 ng·h/mL
- Activity [7]: Dose-Dependent Effect
- Activity [8]: Non-Toxic
- Activity (MV4-11 [9]): Active
- Activity [10]: Dose-Dependent Effect
- IC50 (CYP3A4/CYP3A5 [11]): > 50000 nM
- Activity (Mus musculus): Active
- IC50 (MOLM-13 [12]): 484 nM
- Vd [13]: 3.5 L/kg
- half-life [14]: 0.982 h
- IC50 [15]: 17 nM
- half-life [16]: 3.8 h
- Tmax [17]: 6.2 h
- IC50 (MOLM-13 [18]): 147 nM
- Activity [19]: Tde
- IC50 at 48 h [20]: 15100 nM
- IC50 (Cytochrome P450 2C8): > 50000 nM
- clearance [21]: 3.5 mL/min/kg
- Activity (MV4-11 [22]): Active
- Activity (MV4-11 [23]): Active
- Activity (MV4-11 [24]): Dose-Dependent Effect
- IC50 [25]: > 40000 nM
- Activity [26]: Tde
- Activity [27]: Dose-Dependent Effect
- half-life [28]: 0.615 h
- CL/F [29]: 11.2 mL/min/kg
- IC50 (CYP3A4/CYP3A5 [30]): > 50000 nM
- Activity [31]: Dose-Dependent Effect
- Activity [32]: Non-Toxic
